Measurements as given in US11229655B2, “Fulvestrant formulations” (Fresenius Kabi USA, LLC, priority 2014, dated 2022).
Converted amounts (≈) assume the structure as drawn. Read-outs that look alike come from different tables or passages of the source.

Legend:
[1] = cited from earlier work
[2] = U.S. Pat. No. 6,774,122, cited from earlier work
[3] = Fulvestrant solubility in castor oil based liquid formulations, HPLC assay; type: physicochemical; conditions: castor oil q.s., 10% w/v ethanol, 10% w/v benzyl alcohol
Method: To determine the effect of other compounds on the solubility of fulvestrant in a castor oil vehicle containing 10% ethanol and 10% benzyl alcohol, several liquid formulations were prepared by mixing using standard techniques, as summarized in Table 1. Fulvestrant solubility in each formulation was determined by an HPLC assay.

- solubility ([3]; castor oil based liquid formulation, oil or lipid, 0.05% w/v polysorbate 80, read-out: Solubility): 76.5 mg/mL (≈ 126 mM)
- solubility ([3]; castor oil based liquid formulation, oil or lipid, 0.1% w/v polysorbate 80, read-out: Solubility): 82.5 mg/mL (≈ 136 mM)
- solubility ([3]; castor oil based liquid formulation, oil or lipid, 0.16% w/v polysorbate 80, read-out: Solubility): 90 mg/mL (≈ 148 mM)
- solubility ([3]; castor oil based liquid formulation, oil or lipid, 0.2% w/v polysorbate 80, read-out: Solubility): 95 mg/mL (≈ 157 mM)
- solubility ([3]; castor oil based liquid formulation, oil or lipid, 15% w/v ethyl oleate, read-out: Solubility): 66.8 mg/mL (≈ 110 mM)
- solubility ([3]; castor oil based liquid formulation, oil or lipid, 15% w/v isopropyl myristate, read-out: Solubility): 63.9 mg/mL (≈ 105 mM)
- solubility ([3]; castor oil based liquid formulation, oil or lipid, 15% w/v isopropyl palmitate, read-out: Solubility): 67.6 mg/mL (≈ 111 mM)
- solubility ([3]; 0.09% w/v polysorbate 80): 82.1 mg/mL (≈ 135 mM)
SMILES: C[C@]12CC[C@@H]3c4ccc(O)cc4C[C@@H](CCCCCCCCC[S+]([O-])CCCC(F)(F)C(F)(F)F)[C@H]3[C@@H]1CC[C@@H]2O (stereo partly drawn) [Fulvestrant, 7α-[9-(4,4,5,5,5-pentafluoropentylsulfinyl)nonyl]oestra-1,3,5(10)-triene 3,17 β-diol]
- solubility in water [1]: practically insoluble in water
- solubility of fulvestrant in a castor oil vehicle ([2]; castor oil vehicle containing 10% ethanol, 10% benzyl alcohol, 15% benzyl benzoate): 65 mg/mL
- solubility of fulvestrant in castor oil ([2]; castor oil): 20 mg/mL
